Data set [1] deals with T1, Oryza sativa P5C synthetase 2 (Oryza sativa subsp. japonica, UniProt O04226).
T1 sequence (O04226 1-716): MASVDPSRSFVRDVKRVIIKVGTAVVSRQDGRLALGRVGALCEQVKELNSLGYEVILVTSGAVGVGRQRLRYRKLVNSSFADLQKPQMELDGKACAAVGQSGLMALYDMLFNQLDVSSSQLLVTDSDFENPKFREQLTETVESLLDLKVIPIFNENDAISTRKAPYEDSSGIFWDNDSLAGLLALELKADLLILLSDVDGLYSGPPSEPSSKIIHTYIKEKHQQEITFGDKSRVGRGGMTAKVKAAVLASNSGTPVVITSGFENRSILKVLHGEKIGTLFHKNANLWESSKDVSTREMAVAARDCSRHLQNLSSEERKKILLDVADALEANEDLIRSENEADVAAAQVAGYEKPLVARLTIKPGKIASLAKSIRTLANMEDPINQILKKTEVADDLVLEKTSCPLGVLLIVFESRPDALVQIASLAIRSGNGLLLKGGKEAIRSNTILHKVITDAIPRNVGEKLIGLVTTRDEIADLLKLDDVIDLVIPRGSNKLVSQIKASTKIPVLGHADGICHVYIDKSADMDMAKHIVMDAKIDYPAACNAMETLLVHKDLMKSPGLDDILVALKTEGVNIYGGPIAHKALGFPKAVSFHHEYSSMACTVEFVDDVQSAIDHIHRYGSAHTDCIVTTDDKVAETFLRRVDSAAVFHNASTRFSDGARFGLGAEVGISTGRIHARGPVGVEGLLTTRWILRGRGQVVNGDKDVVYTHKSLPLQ
The experiment in a line: NADPH oxidation assay (full forward, physiological reaction of P5C synthetase). The following applies: for concentrations found inhibitory (exceeding): level above which activity is reduced; for Vmax / Km: named substrate varied, Lineweaver-Burk plot; for Vmax: others fixed at 20mM glutamate, 30°C, pH 7.5; for Km: read-out: KM(app), others saturating (20mM glutamate, 4mM ATP, 0.4mM NADPH), ATP value from concentrations ≤4mM; for effect on P5CS2 activity (in words): increasing concentrations, range tested. On the procedure:
The physiological, forward reaction of P5C synthetase was measured by following the glutamate-dependent oxidation of NADPH in the presence of ATP. Aliquots of the purified enzyme preparations (0.5–1μg protein) were incubated in a final volume of 200μl with 20mML-glutamate, 4mM ATP, and 0.4mM NADPH in 50mM Tris-HCl buffer, pH 7.5. When aiming at the evaluation of the effect of chlorides on enzyme activity, Tris-HCl buffer concentration was lowered to 10mM, or replaced with 10mM potassium phosphate buffer, pH 7.5. Incubation proceeded at 30°C for up to 20min. The decrease of absorbance at 340nm was determined at 0.5min intervals against exact blanks in which glutamate had been omitted. Assays were either performed in cuvettes with 0.2 or 1cm pathlength (UVette; Eppendorf, Milan, Italy), or in 96-microwell plates. In the former case, OD340 was determined with a Novaspec plus spectrophotometer (Amersham Biosciences, Milan, Italy) equipped with an UVette adaptor. In the latter case, the plate was equilibrated at 30°C prior to enzyme addition, and absorbance was measured using a Ledetect plate reader (Labexim, Lengau, Austria) equipped with a LED plugin at 340nm. Each sample was carried out in triplicate (technical replications). Each determination was repeated with at least three different enzyme preparations (biological replications). Presented data refer to a single enzyme preparation, and are means±SE over technical replicates. Linear and non-linear regressions of data, as well as kinetic constant values, were computed using Prism 6 for Windows, version 6.03 (GraphPad Software, San Diego, CA, United States).

Data set [2] concerns P5CS from V. aconitifolia. The following applies: cited from earlier work; for Km: glutamyl kinase assay, ref Zhang et al., 1995.
For data set [3], the system named is P5CS from A. thaliana. Further details: method as in Parre et al., 2010. The following applies: half-reaction; ref Parre et al., 2010; cited from earlier work.
Substrate in data set [4]: N[C@@H](CCC(=O)O)C(=O)O
Description: purified protein, by the assay type. The following applies: other: named substrate varied, others saturating (20mM glutamate, 4mM ATP, 0.4mM NADPH); Lineweaver-Burk plot; ATP value from concentrations ≤4mM; pH 7.5; 30.0 °C.
Description: The physiological, forward reaction of P5C synthetase was measured by following the glutamate-dependent oxidation of NADPH in the presence of ATP. […] When aiming at the evaluation of the effect of chlorides on enzyme activity, Tris-HCl buffer concentration was lowered to 10mM, or replaced with 10mM potassium phosphate buffer, pH 7.5. Incubation proceeded at 30°C for up to 20min. The decrease of absorbance at 340nm was determined at 0.5min intervals against exact blanks in which glutamate had been omitted. Assays were either performed in cuvettes with 0.2 or 1cm pathlength (UVette; Eppendorf, Milan, Italy), or in 96-microwell plates. In the former case, OD340 was determined with a Novaspec plus spectrophotometer (Amersham Biosciences, Milan, Italy) equipped with an UVette adaptor. In the latter case, the plate was equilibrated at 30°C prior to enzyme addition, and absorbance was measured using a Ledetect plate reader (Labexim, Lengau, Austria) equipped with a LED plugin at 340nm. Each sample was carried out in triplicate (technical replications). Each determination was repeated with at least three different enzyme preparations (biological replications). […] Linear and non-linear regressions of data, as well as kinetic constant values, were computed using Prism 6 for Windows, version 6.03 (GraphPad Software, San Diego, CA, United States).

[5] abbreviates: read-out: IC50 (concentration inhibiting activity by 50%), 20mM glutamate, 4mM ATP, 0.4mM NADPH, 50mM Tris-HCl pH 7.5, 30°C, non-linear regression.
Setting [6] is: read-out: IC50 (concentration inhibiting activity by 50%), cations, added as chlorides, 10mM potassium phosphate buffer pH 7.5, Mg++ data relative to equimolar NaCl.
Setting [7] is: IC50 (concentration inhibiting activity by 50%), 20mM glutamate, 4mM ATP, 0.4mM NADPH, 50mM Tris-HCl pH 7.5, 30°C, non-linear regression.
[8] abbreviates: IC50 (concentration inhibiting activity by 50%).

Values joined by “and” are separate entries in the source; they are usually repeats but may differ in a detail not shown here. Equal entries are not always repeated. Where two headings read alike, the source gives them in different places.

For `Nc1ncnc2c1ncn2[C@@H]1O[C@H](COP(=O)(O)OP(=O)(O)O)[C@@H](O)[C@H]1O` [ADP], the “concentrations found inhibitory (exceeding)” value in data set [1] is over 4 mM. In addition, the IC50 in data set [1] (setting [5]) was 9 mM and 9.06 mM. Consider `Nc1ncnc2c1ncn2[C@@H]1O[C@H](COP(=O)(O)OP(=O)(O)OP(=O)(O)O)[C@@H](O)[C@H]1O` [ATP], for which the Michaelis-Menten constant (Km) (usually the substrate concentration at which the rate is half of its maximum) was 2.7 mM in data set [2]; 1.5 mM in data set [3]; 760 µM and 764 µM in data set [1]. In data set [1], the “concentrations found inhibitory (exceeding)” value is listed as “exceeding 4 mM”. Besides, the Vmax in data set [1] (4mM ATP, 0.4mM NADPH) is 17.96±0.46 nkat (mg protein)^−1. For the same molecule, the Ki in data set [1] (read-out: KI value for ATP (substrate inhibition), fit to substrate inhibition model, 20mM glutamate, 0.4mM NADPH) is 11.6 ± 5.1 mM. `NC(=O)C[C@H](N)C(=O)O` [Asparagine]: the “effect on P5CS2 activity up to 100mM (in words)” value (shortened to “effect on P5CS2 activity up”) in data set [1] was “ineffective”. In the case of `[Ca+2]` [Ca^++], in data set [1], the “effect on P5CS2 activity (in words)” value is “strong inhibitory effect”. Besides, the IC50 in data set [1] (setting [6]) was determined as 4.09 mM. Turning to `O=C(O)[C@H]1CCCN1` [D-proline], the “effect on P5CS2 activity up” value in data set [1] is recorded as “unable to interfere”. Consider `O=P(O)(O)O` [HPO4^−−], for which, in data set [1], the “concentrations found inhibitory (exceeding)” value is “higher than 20 mM”. Take `O=C(O)[C@@H]1CC(O)CN1` (stereo partly drawn) [L-4-hydroxyproline]: the IC50 in data set [1] (setting [7]) was 89.5 mM. Also, in data set [1], the “effect on P5CS2 activity (in words)” value is recorded as “partial inhibition”. Regarding `N[C@@H](CCC(=O)O)C(=O)O` [L-Glu, L-glutamate], in data set [2], the Km was 3.6 mM. For the same molecule, the Vmax in data set [1] (4mM ATP, 0.4mM NADPH) is recorded as 17.38±0.52 nkat (mg protein)^−1. In the case of `O=C(O)[C@@H]1CCCN1` [L-proline], the IC50 is 6 mM in data set [2] (ref Hu et al., 1992, read-out: concentration giving 50%-inhibition) and 2.91 mM in data set [1] (setting [8]). The catalytic rate retained entry in data set [1] (10mM proline) is reported as “less than 20%”. `[Mg+2]` [Mg^++] gave an inhibition of activity in data set [1] (Mg++ ions at 20mM) of 25%. Further, the “effect on P5CS2 activity (in words)” value in data set [1] is “strong inhibitory effect”. Moreover, the IC50 in data set [1] (setting [6]) is 34.8 mM.

Take `NC(=O)C1=CN([C@@H]2O[C@H](COP(=O)(O)OP(=O)(O)OC[C@H]3O[C@@H](n4cnc5c(N)ncnc54)[C@H](O)[C@@H]3O)[C@@H](O)[C@H]2O)C=CC1` [NADH]: the “utilization as electron donor instead of NADPH” value in data set [1] (highest concentration tested 0.5mM) is “No detectable utilization”. With `NC(=O)C1=CN([C@@H]2O[C@H](COP(=O)(O)OP(=O)(O)OC[C@H]3O[C@@H](n4cnc5c(N)ncnc54)[C@H](OP(=O)(O)O)[C@@H]3O)[C@@H](O)[C@H]2O)C=CC1` [NADPH], the Vmax in data set [1] (4mM ATP, 0.4mM NADPH) is 18.36±0.64 nkat (mg protein)^−1. Moreover, in data set [1], the Michaelis constant (Km) worked out at 45 ± 4 µM.

As for `NC(=O)c1ccc[n+]([C@@H]2O[C@H](COP(=O)([O-])OP(=O)(O)OC[C@H]3O[C@@H](n4cnc5c(N)ncnc54)[C@H](OP(=O)(O)O)[C@@H]3O)[C@@H](O)[C@H]2O)c1` [NADP^+], the IC50 in data set [1] (setting [5]) is 0.4 mM and 0.389 mM. As to `NC(=O)c1ccc[n+]([C@@H]2O[C@H](COP(=O)([O-])OP(=O)(O)OC[C@H]3O[C@@H](n4cnc5c(N)ncnc54)[C@H](O)[C@@H]3O)[C@@H](O)[C@H]2O)c1` [NAD^+], the “effect on P5CS2 activity (in words)” value in data set [1] was “completely ineffective”. Same read-out and setting: the value for `O=C(O)C1CCC=N1` (stereo not drawn) [P5C, δ^1-pyrroline-5-carboxylate] was “did not exert any significant effect”. As for `O=C(O)[C@@H]1CCCCN1` [Pipecolate, pipecolic acid], the “effect on P5CS2 activity (in words)” value in data set [1] is recorded as “completely ineffective”.

The molecule `N=C(N)NCCC[C@H](N)C(=O)O` [arginine] came in with an IC50 in data set [1] of 63.9 mM. `O=C(O)C1CCN1` (stereo not drawn) [azetidine-2-carboxylic acid] showed an IC50 in data set [1] (setting [7]) of 11 mM. For the same molecule, in data set [1] (versus IC50 of L-proline), the “IC50 relative to proline (fold higher)” value came out at 3.8 fold. `Cl` [chloride anions]: the “stimulation of P5CS2 activity” value in data set [1] (chlorides in the 10–100mM range) was “up to 40%”. For the same molecule, the “concentration range with stimulatory effect” value in data set [1] (chlorides of various cations) was 10 to 100 mM.

In the case of `NC(=O)CC[C@H](N)C(=O)O` [glutamine], in data set [1], the IC50 came to 89.7 mM and the “concentrations found inhibitory (exceeding)” value is listed as “exceeding 10 mM”. In the case of `O=P(O)(O)O` [inorganic phosphate], the “effect on P5CS2 activity (in words)” value in data set [1] is “did not exert any significant effect”.

For `NCCC[C@H](N)C(=O)O` [ornithine], the IC50 in data set [1] (setting [8]) was determined as 52.6 mM. Further, the “concentrations found inhibitory (exceeding)” value in data set [1] is reported as “exceeding 2 mM”. In data set [1] (setting [7]), `O=P(O)(O)C1CCCN1` (stereo not drawn) [phosphonoproline] registered an IC50 of 42.2 mM. In data set [1], the “effect on P5CS2 activity (in words)” value is recorded as “partial inhibition”. Regarding `[Na+]` [sodium cations], the “concentrations found inhibitory (exceeding)” value in data set [1] is given as “exceeding 100 mM”. Take `O=C(O)CCC(=O)C(=O)O` [α-ketoglutarate]: the “effect on P5CS2 activity up” value in data set [1] is “ineffective”.

B1: Oryza sativa P5C synthetase 2 (Oryza sativa Japonica Group) (protein)
chain: T1 sequence (O04226 1-716)
For B1, in data set [4], the Km was 2.69 ± 0.19 mM.
